The record followed here is US10793527B2, “Adenosine monophosphate-activated protein kinase agonist” (NATIONAL YANG-MING UNIVERSITY, priority 2016, dated 2020).

As usually defined, the IC50 is the concentration needed to halve the response being measured.

In experiment [1] the test system is PLC/PRF/5 (PLC5) cells. Description: Cell viability of liver cancer cells (Prestoblue), PLC5. It counts as cell-based. The settings on record: PLC5 cells, 48 hr. The method, then: Hepatoma cell Huh-7 was obtained from Health Science Research Resources Bank (HSRRB, Osaka. Japan; JCRB0403); Hepatoma cell PLC/PRF/5 (PLC5), Sk-Hep-1 and HCC1806 were obtained from the American Type Culture Collection (ATCC, Manassas, Va.). All cell lines are cultured immediately and frozen, so the frozen cells can be thawed every 3 months to allow experiments are conducted with the same batch of cells.
Analysis is performed using a commercial kit Prestoblue assay produced by Thermo Fisher Scientific. Three liver cancer cell lines PLC/PRF/5, SK-hep1, and Huh-7 are cultured with compound SCT-1015 for 48 hours and 72 hours, respectively. […] The results support that the compound of the present invention can activate AMPK to inhibit the proliferation of liver cancer cells.

Experiment [2] relates to AMPK T172. The experiment in a line: Detection of AMPK phosphorylation by ELISA assay in PLC5 cells. Conditions: PLC5 cultured with 10 μM compound for 24 hours, compared to control group. Type of experiment: cell-based. The method, then: In this analysis, the commercial kit AMPK […] Phospho-ELISA Kit (KHO0651) produced by ThermoFisher Science is utilized. The hepatoma cell PLC5 is cultured with 10 μM of the compound for 24 hours, and the analysis is performed according to the manual, and the absorbance was detected at a wavelength of 450 nm.
On the technique in general: An ELISA detects its analyte on a solid surface through an enzyme-linked reagent.

Consider `Cc1ccc(C(=O)Nc2ccc(Cl)c(C(F)(F)F)c2)cc1Nc1nccc(-c2ccc(C#N)cc2)n1` [SCT-1001, N-(4-chloro-3-(trifluoromethyl)phenyl)-(3)-((4-(4-cyanophenyl)pyrimidin-2-yl)amino)-4-methylbenzamide], for which the IC50 in experiment [1] is > 20 µM.

Take `Cc1ccc(C(=O)Nc2ccc(Cl)c(C(F)(F)F)c2)cc1Nc1nccc(-c2cccc(C#N)c2)n1` [SCT-1002, N-(4-chloro-3-(trifluoromethyl)phenyl)-3-((4-(3-cyanophenyl)pyrimidin-2-yl)amino)-4-methylbenzamide]: the “AMPK T172 activity” value in experiment [2] came to 1.2 fold. In addition, the IC50 in experiment [1] was > 20 µM.

For the molecule `Cc1ccc(C(=O)Nc2ccc(Cl)c(C(F)(F)F)c2)cc1Nc1nccc(-c2ccc[nH]2)n1` [SCT-1003, 3-((4-(1H-pyrrol-2-yl)pyrimidin-2-yl)amino)-N-(4-chloro-3-(trifluoromethyl)phenyl)-4-methylbenzamide], the “AMPK T172 activity” value in experiment [2] came out at 1.1 fold. For the same molecule, the IC50 in experiment [1] was > 20 µM.

As to `Cc1ccc(C(=O)Nc2ccc(Cl)c(C(F)(F)F)c2)cc1Nc1nccc(-c2ccccc2)n1` [SCT-1004, N-(4-chloro-3-(trifluoromethyl)phenyl)-4-methyl-3-((4-phenylpyrimidin-2-yl)amino)benzamide], the “AMPK T172 activity” value in experiment [2] is on record as 1.1 fold. The IC50 in experiment [1] is > 20 µM.

Consider `COc1ccc2ccccc2c1-c1ccnc(Nc2cc(C(=O)Nc3ccc(Cl)c(C(F)(F)F)c3)ccc2C)n1` [SCT-1005, N-(4-chloro-3-(trifluoromethyl)phenyl)-3-((4-(2-methoxynaphthalen-1-yl)pyrimidin-2-yl)amino)-4-methylbenzamide], for which, in experiment [2], the “AMPK T172 activity” value came to 1.0 fold. The IC50 in experiment [1] is > 20 µM.

Regarding `Cc1ccc(C(=O)Nc2ccc(Cl)c(C(F)(F)F)c2)cc1Nc1cc(-c2ccccc2)ncn1` [SCT-1006, N-(4-chloro-3-(trifluoromethyl)phenyl)-4-methyl-3-((6-phenylpyrimidin-4-yl)amino)benzamide], the “AMPK T172 activity” value in experiment [2] is 1.3 fold. In addition, the IC50 in experiment [1] is > 20 µM.

For the molecule `Cc1ccc(C(=O)Nc2ccc(Cl)c(C(F)(F)F)c2)cc1Nc1nccc(-c2cccs2)n1` [SCT-1007, N-(4-chloro-3-(trifluoromethyl)phenyl)-4-methyl-3-((4-(thiophen-2-yl)pyrimidin-2-yl)amino)benzamide], in experiment [2], the “AMPK T172 activity” value is 1.1 fold. In experiment [1], the IC50 is > 20 µM.

On to `O=C(Nc1cccc(Nc2nccc(-c3cc(Cl)cc(Cl)c3)n2)c1)Nc1ccc(Cl)c(C(F)(F)F)c1` [SCT-1023, 1-(4-chloro-3-(trifluoromethyl)phenyl)-3-(3-((4-(3,5-dichlorophenyl)pyrimidin-2-yl)amino)phenyl)urea], for which, in experiment [1], the IC50 is > 20 µM.

For the molecule `CCc1cccc(NC(=O)Nc2cccc(Nc3nccc(-c4ccc[nH]4)n3)c2)c1` [SCT-1033], the IC50 in experiment [1] is > 20 µM.

Consider `Cc1ccc(F)c(NC(=O)Nc2cccc(Nc3nccc(-c4ccc[nH]4)n3)c2)c1` [SCT-1034], for which the IC50 in experiment [1] was > 20 µM.

For the molecule `COC(=O)c1cccc(NC(=O)Nc2cccc(Nc3nccc(-c4ccc[nH]4)n3)c2)c1` [SCT-1037], the IC50 in experiment [1] is > 20 µM.

For `O=C(Nc1cccc(Nc2nccc(-c3ccc[nH]3)n2)c1)Nc1cccc(C(=O)O)c1` [SCT-1038, 3-(3-(3-((4-(1H-pyrrol-2-yl)pyrimidin-2-yl)amino)phenyl)ureido)benzoic acid], the IC50 in experiment [1] was > 20 µM.

Take `COC(=O)c1cc(NC(=O)Nc2cccc(Nc3nccc(-c4ccc[nH]4)n3)c2)ccc1C` [SCT-1039, Methyl 5-(3-(3-((4-(1H-pyrrol-2-yl)pyrimidin-2-yl)amino)phenyl)ureido)-2-methylbenzoate]: in experiment [1], the IC50 was > 20 µM.

As for `COC(=O)c1cc(NC(=O)Nc2cccc(Nc3nccc(-c4ccc[nH]4)n3)c2)ccc1Cl` [SCT-1041, Methyl 5-(3-(3-((4-(1H-pyrrol-2-yl)pyrimidin-2-yl)amino)phenyl)ureido)-2-chlorobenzoate], the IC50 in experiment [1] is > 20 µM.
